Reference: article PMC6378654 (Journal of Medicinal Chemistry, 2019)
Where two headings read alike, the source gives them in different places. Blank lines part the entries; values can stand above or below the compound they belong to.

Assays:
β2i = molecular target: T1, β2i (Homo sapiens, UniProt P40306); experiment: ABPP assay with probe 97 in Raji cell lysates; type: biochemical; settings: for labeling of β2i by probe 97 after preincubation with inhibitor: LU-002i at 3 μM, LU-002c at high concentrations, Figure 4B
T1 sequence (P40306 40-273): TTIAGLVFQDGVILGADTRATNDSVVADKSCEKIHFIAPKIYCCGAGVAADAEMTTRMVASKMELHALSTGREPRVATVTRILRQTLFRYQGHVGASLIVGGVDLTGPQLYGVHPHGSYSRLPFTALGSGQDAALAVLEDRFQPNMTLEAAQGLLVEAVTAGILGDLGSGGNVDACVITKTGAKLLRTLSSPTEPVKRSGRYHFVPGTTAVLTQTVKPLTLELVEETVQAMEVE

[1] = molecular target: T2, human proteasome subunit β2i (Homo sapiens, UniProt P40306); experiment: Competitive ABPP in Raji cell lysates; type: biochemical; settings: LU-002i 3 μM, LU-002c 0.3 μM, LU-102 1 μM, Figure 4B
T2 sequence (P40306 40-273): T1 sequence (P40306 40-273)

[2] = molecular target: T3, human proteasome subunit β2c (Homo sapiens, UniProt Q99436); experiment: Competitive ABPP in Raji cell lysates; type: biochemical; settings: for IC50: read-out: Apparent IC50 β2c
T3 sequence (Q99436 44-277): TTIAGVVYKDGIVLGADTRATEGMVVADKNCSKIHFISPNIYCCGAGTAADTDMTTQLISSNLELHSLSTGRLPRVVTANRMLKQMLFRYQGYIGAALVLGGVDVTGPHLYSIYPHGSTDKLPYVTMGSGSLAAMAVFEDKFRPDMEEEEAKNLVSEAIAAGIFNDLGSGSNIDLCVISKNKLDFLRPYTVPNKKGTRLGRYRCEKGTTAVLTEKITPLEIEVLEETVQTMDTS

[3] = Solubility in aqueous solutions; type: physicochemical; settings: stated in words
[4] = tested on: human proteasome subunit β2c; experiment: Competitive ABPP in Raji cell lysates; type: biochemical

- labeling of β2i by probe 97 after preincubation with inhibitor (β2i): completely abolished
Structure (SMILES): CC(C)C[C@H](NC(=O)[C@H](Cc1ccccc1)N=[N+]=[N-])C(=O)N[C@@H](CC(C)C)C(=O)N[C@H](/C=C/S(C)(=O)=O)Cc1ccc(CN)cc1 [Compound 1, reference compound]

- β2i labeling by the three-probe mixture after inhibitor treatment [1]: partially inhibited
- β2c labeling by the three-probe mixture after inhibitor treatment ([2]; Raji cell lysates, LU-002c 0.3 μM, LU-102 1 μM, Figure 4B): completely prevented
- labeling of β2i by probe 97 after preincubation with inhibitor (β2i): partially reduced
Structure (SMILES): CC(C)C[C@H](NC(=O)[C@H](Cc1ccccc1)N=[N+]=[N-])C(=O)N[C@@H](C)C(=O)N[C@H](/C=C/S(C)(=O)=O)Cc1ccc(CN)cc1 [Compound 4]

Structure (SMILES): COc1ccc(C[C@H](NC(=O)[C@H](C)NC(=O)CN2CCOCC2)C(=O)N[C@@H](CC2CCCC3CCCCC32)C(=O)[C@@]2(C)CO2)cc1 (stereo partly shown) [Compound 5]
- solubility in aqueous solutions [3]: poorly soluble

- decreased potency for β2c compared to LU-102 ([2]; initial screening): 23 fold
Structure (SMILES): CC(C)C[C@H](NC(=O)c1cnccn1)C(=O)N[C@@H](CC(C)C)C(=O)N[C@H](/C=C/S(C)(=O)=O)Cc1ccc(CN)cc1 [Compound 7]

Structure (SMILES): COC[C@H](NC(=O)[C@H](CC(C)C)NC(=O)c1cnc(C)s1)C(=O)N[C@H](/C=C/S(C)(=O)=O)Cc1ccc(CN)cc1 [Compound 20]
- selectivity for β2c over β2i ([4]; Raji cell extracts, wider range of concentrations (Table 2)): ≥ 27 fold
- selectivity for β2c over β2i ([4]; initial screening (Table 1)): 14 fold

Structure (SMILES): Cc1ncc(C(=O)N[C@@H](CC2CCCCC2)C(=O)N[C@@H](CC2CCCCC2)C(=O)N[C@H](/C=C/S(C)(=O)=O)Cc2ccc(CN)cc2)s1 [Compound 36]
- selectivity for β2c over β2i ([4]; initial screening (Table 1)): 10.5 fold

Structure (SMILES): COc1ccc(C[C@H](NC(=O)[C@H](C)NC(=O)CN2CCOCC2)C(=O)N[C@@H](CCC2CCCCC2)C(=O)[C@@]2(C)CO2)cc1 [Compound 39, Morp-Ala-Tyr(Me)-HomoCha-EK]
- IC50 ([2]; Raji cell lysates, wider range of final concentrations, Table 5): 2.5 µM

Structure (SMILES): COc1ccc(C[C@H](NC(=O)[C@H](C)NC(=O)CN2CCOCC2)C(=O)N[C@@H](C[C@H]2CCCc3ccccc32)C(=O)[C@@]2(C)CO2)cc1 [Compound 68, Morp-Ala-Tyr(Me)-1-(R)-TetraNal-EK]
- IC50 ([2]; Raji cell lysates, Table 6): > 100 µM

Structure (SMILES): COc1ccc(C[C@H](NC(=O)[C@H](C)NC(=O)CN2CCOCC2)C(=O)N[C@@H](C[C@@H]2CCCc3ccccc32)C(=O)[C@@]2(C)CO2)cc1 [Compound 71, Morp-Ala-Tyr(Me)-1-(S)-TetraNal-EK]
- IC50 ([2]; Raji cell lysates, Table 6): > 100 µM

Structure (SMILES): COc1ccc(C[C@H](NC(=O)[C@H](C)NC(=O)CN2CCOCC2)C(=O)N[C@@H](C[C@H]2CCCC3CCCCC32)C(=O)[C@@]2(C)CO2)cc1 (stereo partly shown) [Compound 74, Morp-Ala-Tyr(Me)-1-DecAla-EK]
- IC50 ([2]; Raji cell lysates, Table 6): > 100 µM

Structure (SMILES): COc1ccc(C[C@H](NC(=O)[C@H](C)NC(=O)CN2CCOCC2)C(=O)N[C@@H](C[C@@H]2CCCC3CCCCC32)C(=O)[C@@]2(C)CO2)cc1 (stereo partly shown) [Compound 77, Morp-Ala-Tyr(Me)-1-DecAla-EK]
- IC50 ([2]; Raji cell lysates, Table 6): 28 µM

Structure (SMILES): COc1ccc(C[C@H](NC(=O)[C@H](C)NC(=O)CN2CCOCC2)C(=O)N[C@@H](C[C@H]2CCC[C@@H]3CCCC[C@@H]32)C(=O)[C@@]2(C)CO2)cc1 [Compound 86, Morp-Ala-Tyr(Me)-1-DecAla-EK]
- IC50 ([2]; Raji cell lysates, Table 6): > 100 µM

- β2i labeling by ABP 97 (β2i; final concentration of 3 μM, Figure 4A): selective
Structure (SMILES): CC1=CC(C)=N/C1=C(/CCCCc1cn(CCOc2ccc(C[C@H](NC(=O)[C@H](C)NC(=O)CN3CCOCC3)C(=O)N[C@@H](CC3CCCC4CCCCC43)C(=O)[C@@]3(C)CO3)cc2)nn1)c1c(C)cc(C)n1B(F)F (stereo partly shown) [Compound 97, Morp-Ala-Tyr(O–C2H4-BODIPY(FL))-1-DecAla-EK]
